Data on two compounds can be found in US20150141460A1, “Anti-inflammatory Compositions” (Cambridge Enterprise Limited, priority 2007, published 2015).

Entries after “also recorded” stand apart in the source; their conditions may differ.

Data set [1] in a line: Pharmacokinetics following a single dose in rat (1 mg/kg iv, 3 mg/kg oral), LC-MS/MS, one-compartment model. As to conditions: for bioavailability: 3 mg/kg oral in 1% CMC vs 1 mg/kg iv, one-compartment model, read-out: F (%) oral bioavailability; for Vd: read-out: Vss (L/kg) volume of distribution; for half-life: intravenous dosing 1 mg/kg, read-out: t1/2 (mins) dominant plasma half-life. The class given is in vivo. The method, then: Compounds were administered as a single dose (either 1 mg/kg bodyweight in 5% DMSO via the intravenous route or 3 mg/kg in 1% carboxymethylcellulose via the oral route) to three adult rats (using different rats for each compound and each route of administration).
Blood was then sampled at various time points (including just prior to dose administration) out to 24 hrs post dose, and the level of the various compounds was assessed using a validated LC-MS/MS assay. Briefly, 3-5 μl of the deproteinised sample was applied to a Waters Atlantis (C18 20×2.1 mm, 3 μm bead size) reverse phase chromatography column equilibrated in 0.1% formic acid in 95:5 water:actetonitrile. Over 3.5 minutes bound material was gradient eluted reaching 0.1% formic acid in 5:95 water:acetonitrile, followed by a step gradient back to 0.1% formic acid in 95:5 water:acetonitrile. The column eluent was then directed to an Applied Biosystems API 4000/3200 QTrap MS/MS mass spectrometer, with a TurboIonspray™ ion source operating in positive ion mode. The interface temperature was set at 650° C., with a 40 ms dwell time for each MRM transition, monitoring the following ions:
The internal standard in each determination was the related compound (S)-3-(2′,2′-dimethyl-propanoylamino)-caprolactam, which was spiked into the sample prior to deproteinization. The lower limit of quantitation (LLOQ) for this assay was 2.4 ng/ml for each compound except (I′), where it was 38.1 ng/ml.
Following LC-MS/MS analysis of each collected sample, the pharmacokinetic disposition of the compound was modelled using Kinetica software, a well known software package for such applications.
Compounds (VI) and (VII) were subject to pharmacokinetic analysis in rat using exactly the same protocols previous applied for compounds (I) through (V) in example 1.
We therefore subjected (VIII) to pharmacokinetic analysis in rat using exactly the same protocols previous applied for compounds (I′) through (VII) in examples 1 and 7.
The isolated (R)-enantiomer of (I) was therefore synthesised (exactly as described herein for the isolated (S)-enantiomer, but replacing the (S)-ornithine starting material with commercially available (R)-ornithine of high stereochemical purity), and the PK properties of this agent, in rat, was determined using the identical methodology described above (see Examples 1, 7 and 8).

A short description of data set [2]: In vitro stability (hydrolysis of C-Cl bond) in physiological saline, LC/MS. As to conditions: after 24 hours at 37° C. Type of data set: physicochemical. The method, then:
(§1) An obvious concern related to this molecule was the stability of the C—Cl bond. We therefore examined the stability of (VIII) in vitro, both in physiological saline and in a rat liver microsome preparation. Encouragingly, less than 2% of (VIII) had undergone hydrolysis (determined by LC/MS, with dual ion detection of the hydrolysis product (V) and the parent compound (VIII)) even after 24 hours at 37° C. […] As a result, we conclude that compound (VIII) has similar in vitro stability and intrinsic clearance to (I′).

The nature of data set [3]: Stability in rat liver microsome preparation. Conditions: 1 μM, 1 hour at 37° C. The class given is in vitro ADME. As to the method:
as §1
Background: Liver microsomes are vesicles of endoplasmic reticulum, rich in cytochrome P450 enzymes.

Data set [4] can be described thus: Identification of the primary metabolites in pooled rat urine by LC-MS-MS. Type of data set: in vivo. Conditions: single oral dose 3 mg/kg in 1% CMC, pooled urine over 24 hrs, qualitative, 3 mg/kg. The method, then:
Urine was collected from rats exposed to a single oral dose (3 mg/kg in 1% CMC) of each compound over a 24 hour period in metabolic cages. The pooled urine sample was then subjected to full scan mass spectral analysis, using the same LC-MS conditions as described in example 1 above. Further MS-MS analysis of the product ions was then performed, and likely fragmentations/re-arrangements assigned from the publicly available Metabolite ID database.
For the major metabolites, the assigned structures were confirmed by synthesis of authentic samples, using methods well known in the art, which were subject to LC-MS-MS analysis under the same conditions as the urine samples.
Note that metabolite ID studies provide only qualitative estimates of the relative amounts of the different metabolites present, and separately validated assays with appropriate internal standards would be required to quantitate each metabolite species.

The subject of data set [5] is S. Typhinurium (TA102, TA98 and TA100). Description: AMES test, revertant colony formation. Conditions: at 5 mg/ml. The class given is cell-based. The method, then: The five compounds were subjected to a standard AMES test to assess likely genotoxicity. Three His-auxotroph strains of S. Typhinurium (TA102, TA98 and TA100) were treated with each of the compounds at 5 concentrations (up to 5 mg/ml) in the presence and absence of S9 rat liver microsomal metabolising system. The number of revertant colonies was then determined by plating on trace-His minimal media.

The target of another data set is T1, NK2 receptor (Homo sapiens, UniProt P21452).
T1 construct: purchased CEREP (screening panel)
T1 sequence (P21452 1-398): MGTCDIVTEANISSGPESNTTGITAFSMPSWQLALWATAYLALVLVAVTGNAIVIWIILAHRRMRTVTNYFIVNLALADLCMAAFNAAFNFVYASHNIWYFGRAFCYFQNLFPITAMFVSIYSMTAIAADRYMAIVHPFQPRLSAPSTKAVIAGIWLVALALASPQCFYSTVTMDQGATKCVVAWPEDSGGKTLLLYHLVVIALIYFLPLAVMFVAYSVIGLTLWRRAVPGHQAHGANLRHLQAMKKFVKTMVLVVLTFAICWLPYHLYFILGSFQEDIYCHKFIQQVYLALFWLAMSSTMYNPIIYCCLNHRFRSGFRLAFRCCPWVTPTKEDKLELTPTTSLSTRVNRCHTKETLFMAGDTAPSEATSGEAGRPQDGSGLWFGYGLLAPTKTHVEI
Briefly: CEREP panel binding, NK2 receptor. As to conditions: estimated from single concentration 10 μM; read-out: estimated ED50 for interaction with the NK2 receptor. As to the method:
FIGS. 5A-5F show the profile of cross-reactivity for each of the five compounds (I′) to (V) (FIG. 5A: (II); FIG. 5B: (III); FIG. 5C: (V); FIG. 5D: (I′) and FIG. 5E: (IV)) against a panel of 75 different receptors that compose the CEREP panel (see text). The compounds were tested at a single concentration (10 μM), and the inhibition of binding (Y-axis of each histogram) for a known ligand to each of the 75 receptors is reported (−100% therefore represents a 2-fold increase in binding of the specific ligand in the presence of the test compound). All reactions were performed in duplicate, and the bars represent the mean (no estimate of the replicate error is shown to simplify the graphs). Only a 50% or greater inhibition (or stimulation) of binding (representing an ED50 below 10 μM for the interaction of the test compound with the particular receptor) was considered statistically and biologically significant in this screening assay. For the five compounds tested here, only one interaction (that of compound (II) with the NK2 receptor, marked by the arrowhead in FIG. 5A) was considered potentially significant, although even this interaction was weak (estimated ED50 5-10 μM).
Binding to non-target receptors was assessed using similar protocols, exploiting specific radioligands for each receptor which are well known in the art. […]

Where [6] appears, read: plasma, averaged across three rats.
Setting [7] is: plasma, iv, 1 mg/kg, averaged across three rats.

As to `O=C1NCCCC[C@@H]1NC(=O)C12CC3CC(CC(Cl)(C3)C1)C2` [(VIII)], in data set [1], the “clearance, fold higher than (I′)” value was “more than 20 fold” and the “oral bioavailability” value is “no detectable oral bioavailability whatsoever”. In data set [1] (all time-points, limit of quantitation ˜2 ng/ml), the “level of analyte in plasma following oral dosing” value was “below the limit of quantitation”. In data set [1] (blood, single oral dose 3 mg/kg in 1% CMC, Tables 7-9, read-out: Exposure (min · ng/ml), oral exposure AUC 0-t (converted)), the AUC(0-t) is less than 1.67 ng·h/mL. The bioavailability in data set [1] (setting [6]) is less than 1%. In addition, in data set [1] (setting [7]), the clearance is 62.8 mL/min/kg, the Vd stood at 0.7 L/kg and the half-life was 15 min. Moreover, the “hydrolysis to (V)” value in data set [2] is “less than 2%”. Moreover, the “degradation compared to a no NADPH blank run” value in data set [3] is “less than 10%”.

In the case of `O=C1NCCCC[C@@H]1NC(=O)C12CC3CC(CC(C3)C1)C2` [Compound (II), 3-(adamantane-1-carbonylamino)-caprolactam], the bioavailability in data set [1] (setting [6]) was less than 1%. Moreover, in data set [1] (setting [7]), the Vd is 0.8 L/kg and the half-life is 16 min. The “major metabolites / route of metabolism detected in urine” value in data set [4] was “cytochrome P450-mediated hydroxylation; also recorded: rapidly converted to (V) in vivo”. Further, in data set [5], the “effect on bacterial lawn growth” value is “inhibition of bacterial lawn growth”. The IC50 at NK2 receptor is 5 to 10 µM.

One may read the bioavailability as dose-corrected exposure relative to a reference, in per cent.
